For the assay, the system named is L1210 leukemia ip in BDF1 mice, survival T/C. Description: NCI In Vivo Anticancer Drug Screen. Data for tumor model L1210 Leukemia (intraperitoneal) in B6D2F1 (BDF1) mice. The settings on record: endpoint: mean survival time, higher = longer survival. Put shortly:
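Value reflects the ratio of survival in compound-treated mice to survival in vehicle-treated controls, with both groups carrying the same transplanted tumor.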

Where [1] appears, read: dose: 100.0 mg/kg/injection, schedule: Q01DX009 (ip), vehicle: Klucel (hydroxypropylcellulose) (HPC).
[2] abbreviates: dose: 200.0 mg/kg/injection, schedule: Q01DX009 (ip), vehicle: Klucel (hydroxypropylcellulose) (HPC).
Setting [3] is: dose: 400.0 mg/kg/injection, schedule: Q01DX009 (ip), vehicle: Klucel (hydroxypropylcellulose) (HPC).
Setting [4] is: dose: 100.0 mg/kg/injection, schedule: Q04DX003 (ip), vehicle: saline.
The mark [5] stands for this setting: dose: 200.0 mg/kg/injection, schedule: Q04DX003 (ip), vehicle: saline.
[6] abbreviates: dose: 400.0 mg/kg/injection, schedule: Q04DX003 (ip), vehicle: saline.
The mark [7] stands for this setting: dose: 25.0 mg/kg/injection, schedule: Q04DX003 (ip), vehicle: saline.
[8] abbreviates: dose: 50.0 mg/kg/injection, schedule: Q04DX003 (ip), vehicle: saline.
Setting [9] is: dose: 100.0 mg/kg/injection, schedule: Q01DX001 (ip), vehicle: saline.
[10] abbreviates: dose: 200.0 mg/kg/injection, schedule: Q01DX001 (ip), vehicle: saline.
Where [11] appears, read: dose: 100.0 mg/kg/injection, schedule: Q04DX003 (ip), vehicle: Klucel (hydroxypropylcellulose) (HPC).
The mark [12] stands for this setting: dose: 200.0 mg/kg/injection, schedule: Q04DX003 (ip), vehicle: Klucel (hydroxypropylcellulose) (HPC).
[13] abbreviates: dose: 400.0 mg/kg/injection, schedule: Q04DX003 (ip), vehicle: Klucel (hydroxypropylcellulose) (HPC).
[14] abbreviates: dose: 100.0 mg/kg/injection, schedule: Q01DX009 (ip), vehicle: other.
[15] abbreviates: dose: 200.0 mg/kg/injection, schedule: Q01DX009 (ip), vehicle: other.
[16] abbreviates: dose: 400.0 mg/kg/injection, schedule: Q01DX009 (ip), vehicle: other.
Where [17] appears, read: dose: 100.0 mg/kg/injection, schedule: Q04DX002 (ip), vehicle: Klucel (hydroxypropylcellulose) (HPC).
Setting [18] is: dose: 200.0 mg/kg/injection, schedule: Q04DX002 (ip), vehicle: Klucel (hydroxypropylcellulose) (HPC).

The text below walks through data of PubChem BioAssay AID248 (DTP/NCI, 2004).

Toxic doses and inconclusive results are not listed.

As for `CC(=O)O[C@H]1CC[C@@]2(C)C(=CC[C@H]3[C@@H]4C[C@@H](N5CC5)[C@H](C(C)=O)[C@@]4(C)CC[C@@H]32)C1`, the T/C by setting is: (dose: 50.0 mg/kg/injection, schedule: Q01DX001 (sc), vehicle: steriod suspending solution) 100 % of control; (dose: 100.0 mg/kg/injection, schedule: Q01DX001 (sc), vehicle: steriod suspending solution) 102 % of control; (dose: 200.0 mg/kg/injection, schedule: Q01DX001 (sc), vehicle: steriod suspending solution) 107 % of control; (dose: 400.0 mg/kg/injection, schedule: Q01DX001 (sc), vehicle: steriod suspending solution) 117 % of control.

As to `CC(=O)OC1CCC(CC2CCCCC2)CC1` (configuration not stated), the T/C is 94 % of control (dose: 50.0 mg/kg/injection, schedule: Q01DX009 (ip), vehicle: Klucel (hydroxypropylcellulose) (HPC)); 100 % of control under setting [1]; 100 % of control under setting [2]; 93 % of control under setting [3].

Turning to `Nc1cc(S(N)(=O)=O)ccc1SSc1ccc(S(N)(=O)=O)cc1N`, the T/C is 105 % of control (dose: 100.0 mg/kg/injection, schedule: Q01DX009 (ip), vehicle: saline); 96 % of control under setting [4]; 99 % of control (dose: 200.0 mg/kg/injection, schedule: Q01DX009 (ip), vehicle: saline); 94 % of control under setting [5]; 110 % of control (dose: 400.0 mg/kg/injection, schedule: Q01DX009 (ip), vehicle: saline); 89 % of control under setting [6].

In the case of `COc1ccc2cc[n+](C)cc2c1`, the T/C was 101 % of control (dose: 12.5 mg/kg/injection, schedule: Q01DX009 (ip), vehicle: saline); 110 % of control (dose: 25.0 mg/kg/injection, schedule: Q01DX009 (ip), vehicle: saline); 100 % of control under setting [7]; 110 % of control (dose: 50.0 mg/kg/injection, schedule: Q01DX009 (ip), vehicle: saline); 96 % of control under setting [8].

With `COc1ccc(C(=O)N/N=C/c2ccccc2)cc1`, the T/C by setting is: (dose: 50.0 mg/kg/injection, schedule: Q01DX001 (ip), vehicle: saline) 102 % of control; under setting [9], 98 % of control; under setting [10], 98 % of control; (dose: 400.0 mg/kg/injection, schedule: Q01DX001 (ip), vehicle: saline) 98 % of control.

As to `CC(CCc1ccccc1)N(C)C(=O)CNC(=O)CN1C(=O)c2ccccc2C1=O` (configuration not stated), the T/C under setting [9] was 96 % of control and the T/C under setting [10] was 92 % of control.

As to `COc1cc2c(cc1OC)C(CNC(=O)/C=C/c1ccccc1)C2` (configuration not stated), the T/C reads like this: under setting [1], 106 % of control; under setting [11], 101 % of control; under setting [2], 101 % of control; under setting [12], 94 % of control; under setting [3], 95 % of control; under setting [13], 97 % of control.

Consider `COc1ccc(OC(=O)Nc2ccccc2C(F)(F)F)cc1`, for which the T/C was 98 % of control (dose: 100.0 mg/kg/injection, schedule: Q01DX009 (ip), vehicle: saline with Tween-80); 107 % of control (dose: 200.0 mg/kg/injection, schedule: Q01DX009 (ip), vehicle: saline with Tween-80); 102 % of control (dose: 400.0 mg/kg/injection, schedule: Q01DX009 (ip), vehicle: saline with Tween-80).

Take `COc1ccc(NCCOc2ccccc2Br)cc1`: the T/C is 96 % of control under setting [14], 96 % of control under setting [15] and 104 % of control under setting [16].

As to `Cc1cn2nnnc2nc1-c1ccccc1O`, the T/C under setting [17] was 98 % of control; the T/C under setting [18] is 91 % of control; the T/C (dose: 400.0 mg/kg/injection, schedule: Q04DX002 (ip), vehicle: Klucel (hydroxypropylcellulose) (HPC)) is 94 % of control.

As to `CCCCN(CCCC)C(=O)c1ccccc1C(=O)O`, the T/C was 95 % of control (dose: 75.0 mg/kg/injection, schedule: Q01DX001 (ip), vehicle: saline); 95 % of control under setting [17]; 104 % of control (dose: 150.0 mg/kg/injection, schedule: Q01DX001 (ip), vehicle: saline); 95 % of control under setting [18]; 103 % of control (dose: 300.0 mg/kg/injection, schedule: Q01DX001 (ip), vehicle: saline).

Take `CNC(=Nc1ccccc1)c1ccc(NC(=O)c2ccc(C(=O)Nc3ccc(C(=Nc4ccccc4)NC)cc3)cc2)cc1`: the T/C is, setting by setting: (dose: 15.0 mg/kg/injection, schedule: Q01DX Z (ip), vehicle: saline) 100 % of control; (dose: 30.0 mg/kg/injection, schedule: Q01DX Z (ip), vehicle: saline) 105 % of control; (dose: 60.0 mg/kg/injection, schedule: Q01DX Z (ip), vehicle: saline) 102 % of control.

Turning to `CCC(=O)c1cc(Cl)ccc1O`, the T/C was 100 % of control under setting [14], 104 % of control under setting [15] and 102 % of control under setting [16].

For `c1ccc2c(Nc3ccc(C4=NCCN4)cc3)nnc(Nc3ccc(C4=NCCN4)cc3)c2c1`, the T/C (dose: 38.0 mg/kg/injection, schedule: Q01DX Z (ip), vehicle: carboxymethylcellulose (CMC)) was 110 % of control; the T/C (dose: 62.5 mg/kg/injection, schedule: Q01DX Z (oral), vehicle: saline) was 103 % of control; the T/C (dose: 63.0 mg/kg/injection, schedule: Q01DX Z (oral), vehicle: water) is 95 % of control; the T/C (dose: 84.0 mg/kg/injection, schedule: Q01DX Z (ip), vehicle: carboxymethylcellulose (CMC)) was 170 % of control; the T/C (dose: 125.0 mg/kg/injection, schedule: Q01DX Z (oral), vehicle: saline) is 103 % of control; the T/C (dose: 125.0 mg/kg/injection, schedule: Q01DX Z (oral), vehicle: water) is 87 % of control. Further, the T/C by setting is: (dose: 187.5 mg/kg/injection, schedule: Q01DX Z (ip), vehicle: carboxymethylcellulose (CMC)) 119 % of control; (dose: 250.0 mg/kg/injection, schedule: Q01DX Z (oral), vehicle: saline) 105 % of control; (dose: 500.0 mg/kg/injection, schedule: Q01DX Z (oral), vehicle: water) 87 % of control.

Take `O=[N+]([O-])c1cc(Cl)ccc1O`: the T/C is, setting by setting: (dose: 100.0 mg/kg/injection, schedule: Q04DX003 (ip), vehicle: saline with Tween-80) 91 % of control; (dose: 200.0 mg/kg/injection, schedule: Q04DX003 (ip), vehicle: saline with Tween-80) 107 % of control; (dose: 400.0 mg/kg/injection, schedule: Q04DX003 (ip), vehicle: saline with Tween-80) 96 % of control.

For the molecule `CN(C)c1cc2c3ccccc3ccc2c2ccccc12`, the T/C reads like this: (dose: 100.0 mg/kg/injection, schedule: Q01DX001 (ip), vehicle: olive oil, sesame oil, peanut oil) 100 % of control; (dose: 200.0 mg/kg/injection, schedule: Q01DX001 (ip), vehicle: olive oil, sesame oil, peanut oil) 103 % of control; (dose: 400.0 mg/kg/injection, schedule: Q01DX001 (ip), vehicle: olive oil, sesame oil, peanut oil) 102 % of control.

As to `Cc1cnc2no[n+]([O-])c2c1`, the T/C runs as follows: under setting [11], 101 % of control; under setting [12], 102 % of control.

Consider `Cc1c2cnccc2c(C)c2c1c1ccccc1n2CCCC#N`, for which the T/C runs as follows: under setting [11], 105 % of control; under setting [12], 102 % of control; under setting [13], 109 % of control.

On to `O=C1C=CC(=O)N1CN1CCOCC1`, for which the T/C (dose: 3.12 mg/kg/injection, schedule: Q01DX009 (ip), vehicle: saline with Tween-80) was 96 % of control; the T/C (dose: 6.25 mg/kg/injection, schedule: Q01DX009 (ip), vehicle: saline with Tween-80) was 96 % of control; the T/C (dose: 12.5 mg/kg/injection, schedule: Q01DX009 (ip), vehicle: saline with Tween-80) was 93 % of control.

Consider `COC1OC(CCl)C(Cl)CC1OC(C)=O` (configuration not stated), for which the T/C is, setting by setting: under setting [4], 95 % of control; under setting [5], 90 % of control; under setting [6], 98 % of control.

As to `Cn1cnc([N+](=O)[O-])c1Sc1c[nH]c(=O)[nH]c1=O`, the T/C by setting is: under setting [7], 107 % of control; under setting [8], 96 % of control; under setting [4], 104 % of control; under setting [5], 93 % of control; under setting [6], 94 % of control.
